Results from patent US12391641B2, “Prostaglandin EP4 receptor antagonist compounds” (NXERA PHARMA UK LIMITED, priority 2019, dated 2025).

Target: T1, Human prostaglandin E2 receptor 4 (EP4) (Homo sapiens, UniProt P35408)
T1 construct: expressed in transfected cells; host or cells: HEK293 cells transduced with EP4 BacMam virus
Assay: cAMP Gs Functional Assay (HTRF cAMP dynamic-2), antagonism of PGE2
Format: cell-based
Conditions: HEK293 cells transfected with EP4 BacMam virus; PGE2 challenge at EC80 (7 nM); pIC50 converted to functional pKb with a modified Cheng Prussoff equation; read-out: Human EP4 fpKb (converted)
Description: Cloning, Baculovirus generation, large scale infection of HEK293 cells and membrane preparation: Human prostaglandin E2 receptor 4 (EP4) was cloned into pBacMam expression vector (GeneScript, UK). Transposition of EP4 DNA was performed using Invitrogen's Bac-to-Bac Baculovirus Expression Systems. P0 baculovirus was generated by transfecting SF9 Cells with bacmid DNA using Cellfectin II transfection reagent (ThermoFisher Scientific, UK, catalog number 10362-100). Following P0 generation P1 virus was then generated ready for large scale infection and membrane preparation. HEK293 cells were grown in DMEM+Glutamax, supplemented with 10% heat inactivated fetal bovine serum (FBS). Cells were infected at a seeding density of 3.5 million cells/mL in 500 cm^3 flasks at 5% v/v EP4 Bacman. Expression was carried out over 36 hr period at 37° C. with 5% CO2. The cells were removed using PBS and a cell scrapper. The cell culture was centrifuged at 2500 RPM for 10 mins at 4° C. The supernatant was then poured off and the pellet stored at −80° C. The pellet was defrosted and re-suspended in 15 mL of homogenising buffer (20 mM HEPES, 10 mM EDTA, pH 7.4). Then homogenised in mechanical homogeniser (VMR) for 10 seconds. The membrane was centrifuged in centrifuge tubes at 40,000 g for 15 mins at 4° C. The supernatant was poured away and re-suspended in 15 mL of homogenising buffer. Homogenised for 20 seconds. The membrane was centrifuged at 40,000 g for 45 mins at 4° C. The membrane was re-suspended in 3 mL of storage buffer (20 mM HEPES, 0.1 mM EDTA, pH 7.4) mixing well. The resulting membranes were then stored at −80° C.
cAMP Gs Functional Assay: cAMP production following EP4 receptor activation was determined using the Homogeneous Time-Resolved Fluorescence (HTRF) cAMP dynamic-2 assay (Cisbio, France). HEK293 cells were transfected using a 0.5% EP4 Bacman virus for 36 hours, before dissociating the cells, and freezing at […].
On the day of testing, increasing concentration of test compounds, alongside positive controls (1 uM ONO-AE3-208) and negative control (DMSO (Sigma-Aldrich, UK) were added to a ProxiPlate-384 Plus, White 384-shallow well Mircoplate, (PerkinElmer, USA) using the ECHO dispense.
Cells were defrosted in a water bath and resuspended in DMEM supplemented with 10% FBS before centrifuging at 1200 RPM for 5 mins to form a pellet. The pellet was resuspended in assay buffer (DMEM+0.5 mM IBMX (Tocris, Abingdon, UK, Catalog Number 2845)) to a 1×10^6 cells/mL. Cell suspension, for a final assay concentration of 5000 cell/well was added using the multidrop to the pre-dispensed assay plate. The plate was then incubated at 37° C. for 30 mins, with 5% CO2. After incubation, EC80 concentration (7 nM) of PGE2 (EP4 agonist) was added to the plate. In parallel, a PGE2 dose-response curve was dispense to a separate plate. Assay buffer was then dispensed on top. The cAMP production was determined as manufacturer's instructions, before plates were read on a PheraStar fluorescence plate reader (BMG LabTech, Germany).
The pIC50 was converted to a functional pKb value using a modified Cheng Prussoff equation where Kd=agonist EC50 and Lhot=agonist challenge concentration;

T1 sequence (P35408 whole entry): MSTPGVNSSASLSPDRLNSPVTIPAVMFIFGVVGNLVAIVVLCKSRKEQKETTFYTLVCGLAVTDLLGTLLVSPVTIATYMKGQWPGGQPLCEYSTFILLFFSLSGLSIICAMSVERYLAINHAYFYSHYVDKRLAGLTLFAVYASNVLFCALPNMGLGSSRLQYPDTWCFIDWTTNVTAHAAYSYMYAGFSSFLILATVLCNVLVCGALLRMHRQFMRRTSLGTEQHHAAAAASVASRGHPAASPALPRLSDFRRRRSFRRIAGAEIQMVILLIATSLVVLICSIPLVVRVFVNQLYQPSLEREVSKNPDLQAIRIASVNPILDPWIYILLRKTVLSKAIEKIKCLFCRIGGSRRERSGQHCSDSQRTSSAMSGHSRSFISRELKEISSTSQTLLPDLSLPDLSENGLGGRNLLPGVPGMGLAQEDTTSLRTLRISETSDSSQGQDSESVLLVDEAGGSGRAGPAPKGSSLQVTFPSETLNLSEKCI

Row | Ki | SMILES
1 | 20.9 nM | CC(C)[C@@H](OCc1ccc(C(F)F)cn1)C(=O)N[C@@H](C)c1ccc(C(=O)O)cc1 [Example 34, 4-((S)-1-((R)-2-((5-(difluoromethyl)pyridin-2-yl)methoxy)-3-methylbutanamido)ethyl)benzoic acid]
2 | > 20900 nM | CC(C)[C@@H](OCc1ccc(F)c(Cl)c1)C(=O)NC1(c2ccc(C(=O)O)cc2)CC1 [Example 78, (R)-4-(1-(2-((3-chloro-4-fluorobenzyl)oxy)-3-methylbutanamido)cyclopropyl)benzoic acid]
3 | 7.24 nM | CCS(=O)(=O)c1cccc(CO[C@@H](C(=O)NC2(c3ccc(C(=O)O)cc3)CC2)C(C)C)c1 [Example 56, (R)-4-(1-(2-((3-(ethylsulfonyl)benzyl)oxy)-3-methylbutanamido)cyclopropyl)benzoic acid]
4 | 0.339 nM | CC(C)[C@@H](OCc1ccc(C(F)F)c(F)c1)C(=O)NC1(c2ccc(C(=O)O)cc2)CC1 [Example 61, (R)-4-(1-(2-((4-(difluoromethyl)-3-fluorobenzyl)oxy)-3-methylbutanamido)cyclopropyl)benzoic acid]
5 | 0.398 nM | CC(C)[C@@H](OCc1ccc(C(F)F)cc1)C(=O)NC1(c2ccc(C(=O)O)cc2)CC1 [Example 62, (R)-4-(1-(2-((4-(difluoromethyl)benzyl)oxy)-3-methylbutanamido)cyclopropyl)benzoic acid]
6 | 0.288 nM | CC(C)[C@@H](OCc1cccc(C(F)(F)F)c1)C(=O)N[C@@H](C)c1ccc(C(=O)O)cc1 [Example 15, 4-((S)-1-((R)-3-methyl-2-((3-(trifluoromethyl)benzyl)oxy)butanamido)ethyl)benzoic acid]
7 | 0.813 nM | CC(C)[C@@H](OCc1cccc(Cl)c1)C(=O)N[C@@H](C)c1ccc(C(=O)O)cc1 [Example 12, 4-((S)-1-((R)-2-((3-chlorobenzyl)oxy)-3-methylbutanamido)ethyl)benzoic acid]
8 | 33.1 nM | CC(C)[C@@H](OCc1ccc(C#N)cc1)C(=O)N[C@@H](C)c1ccc(C(=O)O)cc1 [Example 21, 4-((S)-1-((R)-2-((4-cyanobenzyl)oxy)-3-methylbutanamido)ethyl)benzoic acid]
9 | 302 nM | CC(C)[C@@H](OCc1ccc(F)cc1)C(=O)N[C@@H](C)c1ccc(C(=O)NS(=O)(=O)C2CC2)cc1 [Example 81, N-(cyclopropylsulfonyl)-4-((S)-1-((R)-2-((4-fluorobenzyl)oxy)-3-methylbutanamido)ethyl)benzamide]
10 | 4.68 nM | C[C@H](NC(=O)C(OCc1ccc(C(F)(F)F)cc1)C1CCC1)c1ccc(C(=O)O)cc1 (mixture of isomers) [Example 92, 4-((1S)-1-(2-cyclobutyl-2-((4-(trifluoromethyl)benzyl)oxy)acetamido)ethyl)benzoic acid]
11 | 0.389 nM | CC(C)[C@@H](OCc1cccc(OC(F)F)c1)C(=O)NC1(c2ccc(C(=O)O)cc2)CC1 [Example 52, (R)-4-(1-(2-((3-(difluoromethoxy)benzyl)oxy)-3-methylbutanamido)cyclopropyl)benzoic acid]
12 | 10 nM | CC(C)[C@@H](OCc1cccc(CO)c1)C(=O)N[C@@H](C)c1ccc(C(=O)O)cc1 [Example 45, 4-((S)-1-((R)-2-((3-(hydroxymethyl)benzyl)oxy)-3-methylbutanamido)ethyl)benzoic acid]
13 | 7.41 nM | CC(C)[C@@H](OCc1ccc(F)c(S(C)(=O)=O)c1)C(=O)N[C@@H](C)c1ccc(C(=O)O)cc1 [Example 35, 4-((S)-1-((R)-2-((4-fluoro-3-(methylsulfonyl)benzyl)oxy)-3-methylbutanamido)ethyl)benzoic acid]
14 | 27.5 nM | CC(C)[C@@H](OCc1cc(OC(F)F)ccn1)C(=O)N[C@@H](C)c1ccc(C(=O)O)cc1 [Example 77, 4-((S)-1-((R)-2-((4-(difluoromethoxy)pyridin-2-yl)methoxy)-3-methylbutanamido)ethyl)benzoic acid]
15 | 0.151 nM | CC(C)[C@@H](OCc1ccc2c(c1)OC(F)(F)O2)C(=O)N[C@@H](C)c1ccc(C(=O)O)cc1 [Example 28, 4-((S)-1-((R)-2-((2,2-difluorobenzo[d][1,3]dioxol-5-yl)methoxy)-3-methylbutanamido)ethyl)benzoic acid]
16 | > 67.6 nM | COc1cccc(COC(C(=O)N[C@@H](C)c2ccc(C(=O)O)cc2)C(C)C)c1 (mixture of isomers) [Example 3, 4-((1S)-1-(2-((3-methoxybenzyl)oxy)-3-methylbutanamido)ethyl)benzoic acid]
17 | 29.5 nM | CC(C)[C@@H](OCc1cccc(S(=O)(=O)C2CC2)c1)C(=O)N[C@@H](C)c1ccc(C(=O)O)cc1 [Example 90, 4-((S)-1-((R)-2-((3-(cyclopropylsulfonyl)benzyl)oxy)-3-methylbutanamido)ethyl)benzoic acid]
18 | 0.447 nM | CC(C)[C@@H](OCc1ccnc(OC(F)F)c1)C(=O)N[C@@H](C)c1ccc(C(=O)O)cc1 [Example 74, 4-((S)-1-((R)-2-((2-(difluoromethoxy)pyridin-4-yl)methoxy)-3-methylbutanamido)ethyl)benzoic acid]
19 | 20 nM | CC(C)[C@@H](OCc1cccc(S(=O)(=O)C2CC2)c1)C(=O)NC1(c2ccc(C(=O)O)cc2)CC1 [Example 91, (R)-4-(1-(2-((3-(cyclopropylsulfonyl)benzyl)oxy)-3-methylbutanamido)cyclopropyl)benzoic acid]
20 | 9.77 nM | CC(C)[C@@H](OCc1ccc(C(F)(F)F)cc1)C(=O)NCc1ccc(C(=O)O)cc1 [Example 59, (R)-4-((3-methyl-2-((4-(trifluoromethyl)benzyl)oxy)butanamido)methyl)benzoic acid]
21 | 1.23 nM | CC(C)[C@@H](OCc1ccc(F)c(F)c1)C(=O)NC1(c2ccc(C(=O)O)cc2)CC1 [Example 37, (R)-4-(1-(2-((3,4-difluorobenzyl)oxy)-3-methylbutanamido)cyclopropyl)benzoic acid]
22 | 6.92 nM | CC(C)[C@@H](OCc1ccc(F)cc1)C(=O)NC1(c2ccc(-c3nnn[nH]3)cc2)CC1 [Example 70, (R)—N-(1-(4-(1H-tetrazol-5-yl)phenyl)cyclopropyl)-2-((4-fluorobenzyl)oxy)-3-methylbutanamide]
23 | 5.01 nM | C[C@H](NC(=O)C(OCc1ccc(C(F)(F)F)cc1)C1CCC1)c1ccc(C(=O)O)cc1 (single isomer, unassigned) [Example 94]
24 | 0.186 nM | CC(C)[C@@H](OCc1cccc(C2CC2)c1)C(=O)N[C@@H](C)c1ccc(-c2nnn[nH]2)cc1 [Example 83, (R)—N—((S)-1-(4-(1H-tetrazol-5-yl)phenyl)ethyl)-2-((3-cyclopropylbenzyl)oxy)-3-methylbutanamide]
25 | 12.6 nM | O=C(O)c1ccc(C2(NC(=O)C(OCc3ccc(F)c(F)c3)C3CCC3)CC2)cc1 (stereo not shown) [Example 97, 4-(1-(2-cyclobutyl-2-((3,4-difluorobenzyl)oxy)acetamido)cyclopropyl)benzoic acid]
26 | 0.589 nM | CC(C)[C@@H](OCc1cccc(OC(F)F)c1)C(=O)NC1(c2ccc(-c3nnn[nH]3)cc2)CC1 [Example 72, (R)—N-(1-(4-(1H-tetrazol-5-yl)phenyl)cyclopropyl)-2-((3-(difluoromethoxy)benzyl)oxy)-3-methylbutanamide]
27 | 2.24 nM | CC(C)[C@@H](OCc1ccc(F)cc1)C(=O)NC1(c2ccc(C(=O)O)cc2)CC1 [Example 31, (R)-4-(1-(2-((4-fluorobenzyl)oxy)-3-methylbutanamido)cyclopropyl)benzoic acid]
28 | 1.91 nM | CC(C)[C@@H](OCc1ccc(F)c(F)c1)C(=O)N[C@@H](C)c1ccc(C(=O)O)cc1 [Example 27, 4-((S)-1-((R)-2-((3,4-difluorobenzyl)oxy)-3-methylbutanamido)ethyl)benzoic acid]
